Assay results published in US20240415819A1, “MACROCYCLIC COMPOUNDS AS PROTEASOME SUBUNIT BETA TYPE-5 INHIBITORS” (Lead Discovery Center GmbH, priority 2021, published 2024).
Read-outs that look alike come from different tables or passages of the source.

Tests used:
[1] = test system: MM1 S (B lymphoblast cell line); assay: 48 hr CTG viability assay, MM1S; assay type: cell-based; conditions: Homo sapiens
Procedure, shortened: (§1)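 Growth inhibition by compound over 48 h; IC50 (nM) derived from duplicate CellTiter-Glo luminescence readings across 0.0015–10 uM.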

[2] = test system: RPMI 8226 (B lymphocyte cell line, multiple myeloma); assay: 48 hr CTG viability assay, RPMI 8226; assay type: cell-based; conditions: Homo sapiens
Procedure, shortened: as §1

[3] = molecular target: T1, β5 subunit of the human immunoproteasome (IPS) (Homo sapiens, UniProt P28062); assay: β5 inhibition assay, human immunoproteasome (Suc-LLVY-AMC); assay type: biochemical; conditions: IC50 class, Suc-LLVY-AMC substrate
T1 construct: purchased Boston Biochem E-370
Procedure, shortened: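 Human immunoproteasome (1 nM final) was preincubated 10 min at RT with compound in 100 mM HEPES pH 7.5, 50 mM NaCl, 0.02% SDS, 1 mM DTT. Suc-LLVY-AMC (22.6 μM final) was then added for 4 h at RT in the dark. After stopping with 1 μM bortezomib, AMC fluorescence was read (ex 355/em 460 nm).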

[4] = test system: Hs 746T (human gastric carcinoma cell line); assay: 48 hr CTG viability assay, Hs 746T; assay type: cell-based; conditions: Hs746T
Procedure, shortened: as §1

[5] = test system: A549 (human lung carcinoma cell line); assay: Glo assay of A549 cells (Table 3; ProteasomeGlo plating scheme); assay type: cell-based; conditions: Homo sapiens
Procedure, shortened: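 IC50 values (nM) come from a cell-based chymotrypsin-like Proteasome-Glo luminescence assay. Compound exposure ran 105 min at 37° C.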

[6] = molecular target: T2, β5 subunit of the human constitutive proteasome (CPS) (Homo sapiens, UniProt P28074); assay: β5 inhibition assay, human constitutive proteasome (Suc-LLVY-AMC); assay type: biochemical; conditions: IC50 class, Suc-LLVY-AMC substrate
T2 construct: purchased Boston Biochem E-360
Description: The enzymatic activity of the β5 subunit of the human constitutive proteasome (CPS) is analyzed. In another assay, which differs from the assay of the human constitutive proteasome only in using the human immunoproteasome (IPS) the enzymatic activity of the β5 subunit of the human immunoproteasome (IPS) is analyzed. […] Inhibition is indicated as IC50 [nM] (“-”=not measured).

[7] = RPMI-8226, 48 hr CTG, read-out: RPMI-8226 IC50
[8] = 48 hr CTG, read-out: Hs 746T IC50
[9] = A549 cells, read-out: PGLo A549
[10] = RPMI-8226, 48 h, read-out: RPMI-8226 IC50 [nM]
[11] = 48 h, read-out: Hs 746T IC50 [nM]

Measured: IC50

C#CCC[C@@H]1NC(=O)[C@@H](NC(=O)Cc2cn3ccsc3n2)CC(=O)N2CCCC(CCOc3ccc(C)c(c3)CNC1=O)C2 (stereo partly drawn) [Compound 686, N-((9S,12S)-9-(but-3-yn-1-yl)-5^4-methyl-8,11,14-trioxo-4-oxa-7,10-diaza-1(3,1)-piperidina-5(1,3)-benzenacyclotetradecaphane-12-yl)-2-(imidazo[2,1-b]thiazol-6-yl)acetamide]
< 100 nM: [1]; 48 hr CTG, read-out: MM1S IC50 | [2]; [7] | [3] | [4]; [8] | [5]; [9] | [6]

Cc1ccc2cc1CNC(=O)[C@H](CCc1ccccc1)NC(=O)[C@@H](NC(=O)N1Cc3ccc(N)cc3C1)CC(=O)N1CCCC(CCO2)C1 (stereo partly drawn) [Compound 687, 5-amino-N-((9S,12S)-5^4-methyl-8,11,14-trioxo-9-phenethyl-4-oxa-7,10-diaza-1(3,1)-piperidina-5(1,3)-benzenacyclotetradecaphane-12-yl)isoindoline-2-carboxamide]
< 100 nM: [1]; 48 hr CTG, read-out: MM1S IC50 | [2]; [7] | [3] | [4]; [8] | [5]; [9] | [6]

CCN1CCN(C(=O)N[C@H]2CC(=O)N3CCCC(CCOc4ccc(C)c(c4)CNC(=O)[C@H](CCc4ccccc4)NC2=O)C3)CC1 (stereo partly drawn) [Compound 688, 4-ethyl-N-((9S,12S)-5^4-methyl-8,11,14-trioxo-9-phenethyl-4-oxa-7,10-diaza-1(3,1)-piperidina-5(1,3)-benzenacyclotetradecaphane-12-yl)piperazine-1-carboxamide]
< 100 nM: [1]; 48 hr CTG, read-out: MM1S IC50 | [2]; [7] | [3] | [4]; [8] | [5]; [9] | [6]

Cc1ccc2cc1CNC(=O)[C@H](CCc1ccccc1)NC(=O)[C@@H](NCC(C)(C)CO)CC(=O)N1CCCC(CCO2)C1 (stereo partly drawn) [Compound 690, (9S,12S)-12-((3-hydroxy-2,2-dimethylpropyl)amino)-5^4-methyl-9-phenethyl-4-oxa-7,10-diaza-1(3,1)-piperidina-5(1,3)-benzenacyclotetradecaphane-8,11,14-trione]
< 100 nM: [1]; 48 hr CTG, read-out: MM1S IC50 | [2]; [7] | [3] | [4]; [8] | [5]; [9] | [6]

Cc1ccc2cc1CNC(=O)[C@H](CCc1ccccc1)NC(=O)[C@@H](NC(=O)N1CC(O)C1)CC(=O)N1CCCC(CCO2)C1 (stereo partly drawn) [Compound 691, 3-hydroxy-N-((9S,12S)-5^4-methyl-8,11,14-trioxo-9-phenethyl-4-oxa-7,10-diaza-1(3,1)-piperidina-5(1,3)-benzenacyclotetradecaphane-12-yl)azetidine-1-carboxamide]
< 100 nM: [1]; 48 hr CTG, read-out: MM1S IC50 | [2]; [7] | [3] | [4]; [8] | [5]; [9] | [6]

Cc1ccc2cc1CNC(=O)[C@H](CCc1ccccc1)NC(=O)[C@@H](NC(=O)CCNCCC1CCC1)CC(=O)N1CCCC(CCO2)C1 (stereo partly drawn) [Compound 693, 3-((2-cyclobutylethyl)amino)-N-((9S,12S)-5^4-methyl-8,11,14-trioxo-9-phenethyl-4-oxa-7,10-diaza-1(3,1)-piperidina-5(1,3)-benzenacyclotetradecaphane-12-yl)propanamide]
< 100 nM: [1]; 48 hr CTG, read-out: MM1S IC50 | [2]; [7] | [3] | [4]; [8] | [5]; [9] | [6]

Cc1ccc2cc1CNC(=O)[C@H](CCc1ccccc1)NC(=O)[C@@H](NC(=O)CCNCC1CC1)CC(=O)N1CCCC(CCO2)C1 (stereo partly drawn) [Compound 694, 3-((cyclopropylmethyl)amino)-N-((9S,12S)-5^4-methyl-8,11,14-trioxo-9-phenethyl-4-oxa-7,10-diaza-1(3,1)-piperidina-5(1,3)-benzenacyclotetradecaphane-12-yl)propanamide]
< 100 nM: [1]; 48 hr CTG, read-out: MM1S IC50 | [2]; [7] | [3] | [4]; [8] | [5]; [9] | [6]

Cc1ccc2cc1CNC(=O)[C@H](CCc1ccccc1)NC(=O)[C@@H](NC(=O)CCN[C@@H]1C[C@H]3CC[C@@H]1C3)CC(=O)N1CCCC(CCO2)C1 [Compound 695, 3-(((1R,2R,4S)-bicyclo[2.2.1]heptan-2-yl)amino)-N-((9S,12S)-5^4-methyl-8,11,14-trioxo-9-phenethyl-4-oxa-7,10-diaza-1(3,1)-piperidina-5(1,3)-benzenacyclotetradecaphane-12-yl)propanamide]
< 100 nM: [1]; 48 hr CTG, read-out: MM1S IC50 | [2]; [7] | [3] | [4]; [8] | [5]; [9] | [6]

Cc1ccc2cc1CNC(=O)[C@H](CCc1ccccc1)NC(=O)[C@@H](NC(=O)Cc1ccccc1)CCN(C)C(=O)N1CCCC(CCO2)C1 (stereo partly drawn) [Compound 696, N-((9S,12S)-5^4,15-dimethyl-8,11,16-trioxo-9-phenethyl-4-oxa-7,10,15-triaza-1(3,1)-piperidina-5(1,3)-benzenacyclohexadecaphane-12-yl)-2-phenylacetamide]
< 100 nM: [1]; 48 h, read-out: MM1S IC50 [nM] | [2]; [10] | [3] | [4]; [11] | [5]; A549, read-out: PGLo A549 [nM] | [6]

CC(=O)N1CC(CC(=O)N[C@H]2CC(=O)N3CCCC(CCOc4ccc(C)c(c4)CNC(=O)[C@H](CCc4ccccc4)NC2=O)C3)C1 (stereo partly drawn) [Compound 697, 2-(1-acetylazetidin-3-yl)-N-((9S,12S)-5^4-methyl-8,11,14-trioxo-9-phenethyl-4-oxa-7,10-diaza-1(3,1)-piperidina-5(1,3)-benzenacyclotetradecaphane-12-yl)acetamide]
< 100 nM: [1]; 48 hr CTG, read-out: MM1S IC50 | [2]; [7] | [3] | [4]; [8] | [5]; [9] | [6]

Cc1ccc2cc1CNC(=O)[C@H](CCc1ccccc1)NC(=O)[C@@H](NC(=O)CCNCCC1CC3CCC1C3)CC(=O)N1CCCC(CCO2)C1 (stereo partly drawn) [Compound 698, 3-((2-(bicyclo[2.2.1]heptan-2-yl)ethyl)amino)-N-((9S,12S)-5^4-methyl-8,11,14-trioxo-9-phenethyl-4-oxa-7,10-diaza-1(3,1)-piperidina-5(1,3)-benzenacyclotetradecaphane-12-yl)propanamide]
< 100 nM: [1]; 48 hr CTG, read-out: MM1S IC50 | [2]; [7] | [3] | [4]; [8] | [5]; [9] | [6]

Cc1ccc2cc1CNC(=O)[C@H](CCc1ccccc1)NC(=O)[C@@H](NC(=O)CCNCc1ccc(N3CCN(Cc4ccccc4)CC3)cc1)CC(=O)N1CCCC(CCO2)C1 (stereo partly drawn) [Compound 699, 3-((4-(4-benzylpiperazin-1-yl)benzyl)amino)-N-((9S,12S)-5^4-methyl-8,11,14-trioxo-9-phenethyl-4-oxa-7,10-diaza-1(3,1)-piperidina-5(1,3)-benzenacyclotetradecaphane-12-yl)propanamide]
< 100 nM: [1]; 48 hr CTG, read-out: MM1S IC50 | [2]; [7] | [3] | [4]; [8] | [5]; [9] | [6]

Cc1ccc2cc1CNC(=O)[C@H](CCc1ccccc1)NC(=O)[C@@H](NC(=O)CCNCCC1CCCC1)CC(=O)N1CCCC(CCO2)C1 (stereo partly drawn) [Compound 700, 3-((2-cyclopentylethyl)amino)-N-((9S,12S)-5^4-methyl-8,11,14-trioxo-9-phenethyl-4-oxa-7,10-diaza-1(3,1)-piperidina-5(1,3)-benzenacyclotetradecaphane-12-yl)propanamide]
< 100 nM: [1]; 48 hr CTG, read-out: MM1S IC50 | [2]; [7] | [3] | [4]; [8] | [5]; [9] | [6]

Cc1ccc2cc1CNC(=O)[C@H](CCc1ccccc1)NC(=O)[C@@H](NC(=O)CCNC(=O)C1CC3CCC1O3)CC(=O)N1CCCC(CCO2)C1 (stereo partly drawn) [Compound 701, N-(3-(((9S,12S)-5^4-methyl-8,11,14-trioxo-9-phenethyl-4-oxa-7,10-diaza-1(3,1)-piperidina-5(1,3)-benzenacyclotetradecaphane-12-yl)amino)-3-oxopropyl)-7-oxabicyclo[2.2.1]heptane-2-carboxamide]
< 100 nM: [1]; 48 hr CTG, read-out: MM1S IC50 | [2]; [7] | [3] | [4]; [8] | [5]; [9] | [6]

Cc1ccc2cc1CNC(=O)[C@H](CCc1ccccc1)NC(=O)[C@@H](NC(=O)CCN1CCC1)CC(=O)N1CCCC(CCO2)C1 (stereo partly drawn) [Compound 702, 3-(azetidin-1-yl)-N-((9S,12S)-5^4-methyl-8,11,14-trioxo-9-phenethyl-4-oxa-7,10-diaza-1(3,1)-piperidina-5(1,3)-benzenacyclotetradecaphane-12-yl)propanamide]
< 100 nM: [1]; 48 h, read-out: MM1S IC50 [nM] | [2]; [10] | [3] | [4]; [11] | [5]; A549, read-out: PGLo A549 [nM] | [6]
